Earlier results in patent publication US20040127476A1, “Oral testosterone delivery system with improved sustained release” (priority 2002, published 2004).

Legend:
[1] = oral 200 mg twice daily (two doses)
[2] = oral 200 mg twice daily, double peak effect

C[C@]12CC[C@H]3[C@@H](CCC4=CC(=O)CC[C@@]43C)[C@@H]1CC[C@@H]2O [micronized testosterone, testosterone]
time with total serum testosterone within the normal range [1]: greater than 12 h
time at desired level of serum testosterone, for each peak [2]: about 4 hours
